# Values quoted from earlier work in patent US20060216350A1, “Ganglionic blocking agents for the treatment of epithelial diseases” (priority 2005, published 2006).
# System: hand warts
# Settings: patients with hand warts; Sterling et al. 2001
compound,measurement,value
O=C(O)c1ccccc1O [Salicylic acid],"clearance of warts, % of patients",67%
